Assay results from PMC4039038 (Journal of immunology (Baltimore, Md. : 1950), 2011).

Experiments:
[1] = biological target: ERAP1 K528R (528R) (Homo sapiens, UniProt Q9NZ08, K528R); test: Michaelis–Menten kinetics of antigenic peptide precursor trimming, ERAP1 K528R; format: biochemical
[2] = tested on: ERAP1 Q730E (730E); test: Michaelis–Menten kinetics of antigenic peptide precursor trimming, ERAP1 Q730E; format: biochemical, human; details: low substrate concentrations (kcat/KM); Q730E vs Ref and K528R
[3] = biological target: ERAP1 Q730E (730E) (Homo sapiens, UniProt Q9NZ08, Q730E); test: as above; format: biochemical; details: 730E allele; classical MM model; initial trimming rates, reactions limited to 10 min, 25°C
[4] = tested on: ERAP1 alleles (Ref, K528R, Q730E); test: LAMC trimming in the presence of SIINFEKL, all three ERAP1 alleles; format: biochemical, human; details: 100 μM SIINFEKL
[5] = tested on: ERAP1 alleles (Ref, K528R, Q730E); test: LAMC hydrolysis, all three ERAP1 alleles; format: biochemical, human; details: no activating peptide; 25°C, up to 10 min
[6] = tested on: ERAP1 K528R; test: LAMC hydrolysis, ERAP1 K528R; format: biochemical, human; details: no activating peptide, 25°C, up to 10 min
[7] = tested on: ERAP1 K528R; test: Activation of LAMC trimming by SIINFEKL, ERAP1 K528R; format: biochemical, human; details: 100 μM SIINFEKL, 25°C, up to 10 min
[8] = tested on: ERAP1; details: 8mer peptide; ref [3]; cited from earlier work
[9] = tested on: ERAP1 Q730E; test: Activation of LAMC trimming by SIINFEKL, ERAP1 Q730E; format: biochemical, human; details: 100 μM SIINFEKL, 25°C, up to 10 min
[10] = biological target: endoplasmic reticulum aminopeptidase 1 (ERAP1), ancestral reference sequence NP_057526 (human, UniProt Q9NZ08-2 1-948); test: enzyme kinetics
[11] = biological target: ERAP1 Q730E (rs27044) (human, UniProt Q9NZ08-2 1-948, Q730E); test: enzyme kinetics
[12] = 528R allele, classical MM model, initial trimming rates, reactions limited to 10 min, 25°C

Molecule: LATFPDTLTY
- Km [1, 12]: 49 ± 13 µM
- kcat [1, 12]: 3.09 ± 0.203 s^–1
- kcat/KM [1, 12]: 63 ± 17 × 10^3 s^–1 M^–1
- processing rate by the K528R allele relative to other alleles ([1]; saturating conditions (kcat controls trimming rates)): twice as quickly
- processing rate, fold more slowly by Q730E than by the other two alleles [2]: 2 fold
- Km [3]: 45 ± 11 µM
- kcat [3]: 1.635 ± 0.10 s^–1
- kcat/KM [3]: 36 ± 9 × 10^3 s^–1 M^–1

Molecule: Cc1cc(=O)oc2cc(NC(=O)[C@@H](N)CC(C)C)ccc12 [LAMC, L-leucine-7-amido-4-methyl coumarin]
- trimming activity of all three alleles toward LAMC in the presence of SIINFEKL ([4]; comparison between the three alleles): comparable trimming activity
- hydrolysis of LAMC by all three variants [5]: enzymatically active
- fold less active of ERAP1 K528R in LAMC hydrolysis [6]: ~ 4 fold

Molecule: SIINFEKL
- magnitude of activation of LAMC trimming [7]: 4 fold
- ERAP1-mediated hydrolysis of LAMC in the presence of SIINFEKL [4]: enhanced
- substrate quality for ERAP1 [8]: poor substrate
- magnitude of activation of LAMC trimming [9]: 1.6 fold

Molecule: YKRFEGLTQR [YKRFEGLTQR, single-amino acid extended precursor of the HLA-B27 ligand KRFEGLTQR]
- Ki [10]: 394 ± 133 µM

Molecule: LKRVVINKDT [LKRVVINKDT, single-amino acid extended precursor of the HLA-B27 ligand KRVVINKDT]
- Ki [11]: 132 ± 53 µM
